Test results reported in ChEMBL document CHEMBL3046797, “Structure-activity relationships of trichothecene toxins in an Arabidopsis thaliana leaf assay” (J Agric Food Chem, 2007).

Columns and labels:
Format in all cases: organism-based
Arabidopsis thaliana [1] = experiment: Phytotoxicity against Arabidopsis thaliana Col-4 leaves assessed as induction of chlorosis, shriveling or death of leaves […] by detached leaf assay; details: in vivo
[2] = Phytotoxicity against Arabidopsis thaliana Col-4 leaves assessed as induction of leaf death after 7 weeks post compound application by detached leaf assay; details: Col-4, arabidopsis thaliana, read-out: LD50
Arabidopsis thaliana [3] = experiment: Phytotoxicity against Arabidopsis thaliana Col-4 leaves assessed as induction of chlorosis at 100 uM […] by detached leaf assay; details: in vivo, 1176 h
Arabidopsis thaliana [4] = experiment: Phytotoxicity against Arabidopsis thaliana Col-4 leaves assessed as induction of leaf death at 50 uM […] by detached leaf assay; details: in vivo
Arabidopsis thaliana [5] = experiment: Phytotoxicity against Arabidopsis thaliana Col-4 leaves assessed as induction of leaf death at 10 uM […] by detached leaf assay; details: in vivo
Arabidopsis thaliana [6] = experiment: Phytotoxicity against Arabidopsis thaliana Col-4 leaves assessed as induction of chlorosis at 50 uM […] by detached leaf assay; details: in vivo, 1176 h
Arabidopsis thaliana [7] = experiment: Phytotoxicity against Arabidopsis thaliana Col-4 leaves assessed as induction of chlorosis at 10 uM […] by detached leaf assay; details: in vivo
Arabidopsis thaliana [8] = experiment: Phytotoxicity against Arabidopsis thaliana Col-4 leaves assessed as induction of leaf death at 100 uM […] by detached leaf assay; details: in vivo

Row | SMILES | ED50 (Arabidopsis thaliana [1]) [µM] | LC50 at 1176 h [2] [µM] | also measured
1 | CC1=C[C@H]2O[C@@H]3[C@H](O)C[C@@H](O)[C@](C)([C@@]2(CO)CC1)[C@@]31CO1 [SCIRPENTRIOL] | 53.6 | – | –
2 | CC(=O)O[C@@H]1C[C@@H](O)[C@H]2O[C@@H]3C=C(C)C(=O)[C@@H](O)[C@]3(CO)[C@]1(C)[C@@]21CO1 [4-ACETYLNIVALENOL] | 16.1 | – | –
3 | CC(=O)OC[C@]12[C@H](O)C(=O)C(C)=C[C@H]1O[C@@H]1[C@H](OC(C)=O)CC[C@@]2(C)[C@@]12CO2 [3,15-DIACETYLDEOXYNIVALENOL] | 10 | 28.2 | –
4 | CC(=O)O[C@@H]1CC[C@]2(C)[C@@]3(CO)CCC(C)=C[C@H]3O[C@H]1[C@]21CO1 [15-DEACETYLCALONECTRIN] | > 100 | – | Activity (Arabidopsis thaliana [3]): 50%
5 | CC(=O)OC[C@]12[C@H](O)C(=O)C(C)=C[C@H]1O[C@@H]1[C@H](O)C[C@@]2(C)[C@]12CO2 [15-ACETYLDEOXYNIVALENOL] | 1.3 | 4 | –
6 | CC1=CC(O)[C@@](C)([C@@]2(C)C[C@@H](O)[C@@H](O)C23CO3)CC1 (stereo partly drawn) [ISOTRICHOTRIOL] | > 100 | – | Activity (Arabidopsis thaliana [4]): 10%; Activity (Arabidopsis thaliana [5]): 10%; Activity (Arabidopsis thaliana [6]): 10%; Activity (Arabidopsis thaliana [7]): 10%; Activity (Arabidopsis thaliana [8]): 10%; Activity (Arabidopsis thaliana [3]): 10%
7 | CC(=O)O[C@@H]1CC[C@]2(C)[C@@]3(C)CCC(C)=C[C@H]3O[C@H]1[C@]21CO1 [ISOTRICHODERMIN] | 8.6 | 16.1 | –
8 | CC1=C[C@H]2O[C@@H]3[C@H](O)CC[C@](C)([C@@]2(CO)CC1)[C@@]31CO1 [3,15-DIDEACETYLCALONECTRIN] | 90.1 | – | –
9 | C=C1CCC[C@]1(C)[C@]1(C)CC=C(C)CC1 [TRICHODIENE] | > 100 | – | Activity (Arabidopsis thaliana [8]): 3%; Activity (Arabidopsis thaliana [3]): 10%
10 | CC1=C[C@H]2O[C@@H]3[C@H](O)[C@@H](O)[C@](C)([C@@]2(CO)[C@H](O)C1=O)[C@]31CO1 [NIVALENOL] | > 100 | > 100 | Activity (Arabidopsis thaliana [3]): 10%
11 | CC(=O)O[C@@H]1C[C@]2(C)[C@@]3(CO)[C@H](O)C(=O)C(C)=C[C@H]3O[C@H]1[C@@]21CO1 [3-ACETYLDEOXYNIVALENOL] | 3.4 | 18.7 | –
12 | CC1=C[C@H]2O[C@@H]3[C@H](O)C[C@](C)([C@@]2(CO)[C@H](O)C1=O)[C@]31CO1 [DEOXYNIVALENOL] | 3.8 | 23 | –
13 | CC(=O)OC[C@]12CCC(C)=C[C@H]1O[C@@H]1[C@H](OC(C)=O)C[C@@H](OC(C)=O)[C@@]2(C)[C@@]12CO2 [3,4,15-TRIACETOXYSCIRPENOL] | 6.7 | – | –
14 | CC(=O)OC[C@]12[C@H](O)C(=O)C(C)=C[C@H]1O[C@@H]1[C@H](OC(C)=O)C[C@@H](O)[C@@]2(C)[C@@]12CO2 [3,15-DIACETYLNIVALENOL] | 2.2 | 4.3 | –
15 | CC(=O)OC[C@]12CCC(C)=C[C@H]1O[C@@H]1[C@H](O)CC[C@@]2(C)[C@@]12CO2 [3-DEACETYLCALONECTRIN] | 7.6 | – | –
16 | CC1=C[C@H]2O[C@@H]3[C@H](O)CC[C@](C)([C@@]2(C)CC1)[C@@]31CO1 [ISOTRICHODERMOL] | 3.5 | – | –
